Laboratory results reported in PMC10056348, “Photocaged Histone Deacetylase Inhibitors as Prodrugs in Targeted Cancer Therapy” (Pharmaceuticals, 2023).
One block for each compound: values may come before it.

Assays:
[1] = test system: human ovarian cancer cell line A2780; set-up: method as in PMID 31762274; conditions: cited from earlier work
[2] = test system: human squamous carcinoma cell line Cal27; set-up: method as in PMID 31762274; conditions: cited from earlier work
[3] = test system: cisplatin-resistant Cal27CisR cells; set-up: method as in PMID 31762274; conditions: cited from earlier work
[4] = set-up: method as in PMID 26603496; conditions: cited from earlier work
rodent cells = test system: rodent cells; set-up: method as in PMID 26603496; conditions: cited from earlier work
[5] = Photo-uncaging efficiency (HPLC after irradiation at 365 nm); format: physicochemical; conditions: 10 min
Procedure: Photolysis (photo-uncaging) of photocaged HDACi prodrugs was performed at room temperature using a UVP CL-1000 Crosslinker (Analytik Jena GmbH, Jena, Germany) equipped with five UV-A tubes (F8T5/BL368; λmax = 365 nm; Analytik Jena GmbH, Jena, Germany). Hereafter, this entire experimental set-up will be referred to as the “UV reactor”.
For the photo-uncaging efficiency testing, 10 µL of a 1.0 mM DMSO solution of the respective compound was irradiated for 10 min using the UV reactor described above. Subsequently, 90 µL acetonitrile was added, and the samples were analyzed via HPLC. The amount of photo-cleaved HDACi was determined by comparison with a five-point calibration curve of the respective parent inhibitor, using HPLC/UV detection at an appropriate wavelength (area under the curve; area mAu*min).
2. Photouncaging Experiments
Photolysis (photouncaging) of photocaged HDACi prodrugs was performed at room temperature using an UVP CL-1000 Crosslinker (Analytik Jena GmbH, Jena, Germany) equipped with five UV-A tubes (F8T5/BL368; λmax = 365 nm; Analytik Jena GmbH, Jena, Germany). Hereafter, this entire experimental set-up will be referred to as the "UV-reactor".
For the deprotection experiments 10 µL of a 1.0 mM DMSO-solution of the respective compound were irradiated for 10 min using the UV-reactor described above. Subsequently, 90 µL acetonitrile were added and the samples were analyzed via HPLC. The amount of photo-cleaved HDACi was determined by comparison with a five-point calibration curve of the respective parent inhibitor using HPLC/UV detection at an appropriate wavelength (area under the curve; area mAu*min).
Figure S5. Calibration curve of DDK-137 (I).

SMILES: CN(C)c1ccc(C(=O)N(CC(=O)NCc2ccccc2)Cc2ccc(C(=O)Nc3ccccc3N)cc2)cc1 [II, N-{4-[(2-aminophenyl)-carbamoyl]-benzyl}-N-[2-(benzylamino)-2-oxoethyl]-4-(dimethylamino)-benzamide]
antiproliferative effects in A2780 [1]: promising antiproliferative effects | antiproliferative effects in Cal27 [2]: promising antiproliferative effects | reversal of cisplatin resistance [3]: capable of reversing cisplatin resistance

SMILES: O=C(CCCCCCC(=O)Nc1ccccc1)NO [Vorinostat]
mutagenic activity in the Ames test [4]: mutagenic activity | chromosomal aberrations in rodent cells (rodent cells): provoke chromosomal aberrations

SMILES: O=C(/C=C/c1cccc(S(=O)(=O)Nc2ccccc2)c1)NO [belinostat]
mutagenic activity in the Ames test [4]: mutagenic activity | chromosomal aberrations in rodent cells (rodent cells): provoke chromosomal aberrations

SMILES: Cc1[nH]c2ccccc2c1CCNCc1ccc(/C=C/C(=O)NO)cc1 [panobinostat]
mutagenic activity in the Ames test [4]: mutagenic activity | chromosomal aberrations in rodent cells (rodent cells): provoke chromosomal aberrations

behaviour under treatment with light ([5]; DMSO): decomposed | concentration of photo-released parent inhibitor after irradiation ([5]; initial concentration 100 µM): not detected | melting point: 159 to 161 °C
SMILES: COc1cc(COC(=O)Nc2ccccc2NC(=O)c2ccc(CN(CC(=O)NCc3ccccc3)C(=O)c3ccc(N(C)C)cc3)cc2)c([N+](=O)[O-])cc1OC [pc-II, 4,5-Dimethoxy-2-nitrobenzyl-{2-[4-({N-[2-(benzylamino)-2-oxoethyl]-4-(dimethylamino)benzamido}methyl)benzamido]phenyl}carbamate]
yield of photo-released parent inhibitor ([5]; DMSO, HPLC with calibration curve): did not release the parent HDACi II in significant quantities
